Paper PMC7784547 (Bioorganic Chemistry, 2021)
“Also recorded” adds a separate entry of the source. Where two headings read alike, the source gives them in different places.

What was measured:
A/Aichi/2/68 (H3N2) = assay: microbe, parasite or virus in culture; type: cell-based; settings: read-out: IC50 ± SD, H3N2
[1] = test system: Influenza A/Puerto Rico/8/34 (H1N1); assay: microbe, parasite or virus in culture; settings: H1N1|PR8, MDCK, read-out: IC50 ± SD, PR8
in vitro = settings: dog
[2] = test system: Influenza A/Puerto Rico/8/34 (H1N1)
SARS-CoV-2 = settings: read-out: IC50 against SARS-CoV-2, Full-time treatment; cited from earlier work
[3] = test system: influenza A/PR/8/34 (H1N1) virus; design: species or system KM mice; settings: mouse, in vivo; for body weight of infected mice: po
[4] = test system: influenza A/PR/8/34 (H1N1) virus; type: cell-based
[5] = test system: influenza virus A/PR/8/34 (H1N1)
[6] = test system: A/Puerto Rico/8/34 (H1N1) influenza virus; type: cell-based
[7] = test system: Influenza A/Puerto Rico/8/34 (H1N1); type: cell-based, influenza A virus
influenza A virus = type: cell-based
[8] = mouse, in vivo, po, 10 mg/kg
hemagglutinin (HA) = hemagglutinin (HA) (Influenza A virus, UniProt P03452)
Sequence of hemagglutinin (HA) (P03452 18-342 limits assumed): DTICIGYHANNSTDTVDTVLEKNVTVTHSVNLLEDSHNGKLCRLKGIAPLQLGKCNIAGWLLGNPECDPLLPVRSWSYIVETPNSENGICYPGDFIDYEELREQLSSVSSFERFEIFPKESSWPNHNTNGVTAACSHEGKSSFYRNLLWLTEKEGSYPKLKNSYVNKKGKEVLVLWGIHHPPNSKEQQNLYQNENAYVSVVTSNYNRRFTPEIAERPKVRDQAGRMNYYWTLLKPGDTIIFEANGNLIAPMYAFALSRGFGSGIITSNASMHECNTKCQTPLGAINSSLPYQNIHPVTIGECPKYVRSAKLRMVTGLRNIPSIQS
Sequence of hemagglutinin (HA) (P03452 344-565 limits assumed): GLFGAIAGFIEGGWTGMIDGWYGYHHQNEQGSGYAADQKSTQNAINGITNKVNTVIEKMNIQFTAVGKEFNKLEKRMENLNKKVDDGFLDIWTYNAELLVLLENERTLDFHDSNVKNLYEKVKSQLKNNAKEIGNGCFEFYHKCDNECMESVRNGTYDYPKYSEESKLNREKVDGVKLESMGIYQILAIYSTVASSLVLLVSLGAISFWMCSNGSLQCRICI

C=Cc1c(C)c2cc3nc(c4c5[nH]c(cc6nc(cc1[nH]2)C(C)=C6CC)c(C)c5C(=O)C4)[C@@H](CCC(=O)O)[C@@H]3C [PPa, pyropheophorbide a, reference compound]
IC50 (A/Aichi/2/68 (H3N2); Influenza A virus, H3N2, MDCK): 1.23 ± 1.1 µM | IC50 [1]: 0.32 ± 0.28 µM | CC50 (in vitro): 140 ± 3.61 µM

CC(C)CCC[C@@H](C)[C@H]1CC[C@H]2[C@@H]3CC=C4C[C@@H](OCC(=O)N[C@@H](CCCCN)C(=O)N[C@@H](CCCCN)C(=O)N[C@@H](Cc5c[nH]c6ccccc56)C(=O)N[C@@H](CCCCN)C(N)=O)CC[C@]4(C)[C@H]3CC[C@]12C [S-KKWK, reference compound]
IC50 ([2]; /Puerto Rico/8/34, 48 h): 1.85 ± 0.92 µM

CCN(CC)CCCC(C)Nc1ccnc2cc(Cl)ccc12 (centres unmarked) [chloroquine]
IC50 (SARS-CoV-2): 10 µM

CCOC(=O)C1=C[C@@H](OC(CC)CC)[C@H](NC(C)=O)[C@@H](N)C1 [oseltamivir phosphate, reference compound]
body weight of infected mice [3]: slowly increased

protoporphyrin IX [PPIX]
IC50 (A/Aichi/2/68 (H3N2)): 1.49 ± 0.66 µM | survival rate and mean survival time of infected mice [3]: apparently prolonged; also recorded: apparently increased | body weight of infected mice [3]: slowly increased | CC50 (MDCK cells): 230 ± 4.53 µM | CC90 (MDCK cells): 316 µM | inhibitory effect by time of addition (viral titer in supernatant) [4]: better inhibitory effect | IC50 ([5]; read-out: IC50 ± SD, After infection): > 17.8 µM | IC50 ([5]; read-out: IC50 ± SD, During infection): 8.87 ± 3.07 µM | IC50 ([5]; read-out: IC50 ± SD, Pretreatment of cell): > 17.8 µM | IC50 ([5]; read-out: IC50 ± SD, Pretreatment of virus): 1.88 ± 0.85 µM | NP expression (green fluorescence) after treatment [6]: apparently decreased | CC50 (Vero-E6 cells): 120.8 ± 0.95 µM | IC50 ([2]; read-out: IC50 ± SD, PR8): 1.88 ± 0.85 µM | antiviral activity with red light versus no light [7]: no significant difference | antiviral activity with increasing added lipids (influenza A virus): decreased along with the increase of lipids | time of maximum peak of PPIX in plasma [8]: about 2 h | hemagglutinin inhibition (viral adsorption to target cells) (hemagglutinin (HA)): negative results
